Source: patent publication EP4603105A1, “PHARMACEUTICAL COMPOSITION CONTAINING CYCLIC COMPOUND HAVING SELECTIVE KRAS INHIBITORY EFFECT AGAINST HRAS AND NRAS” (CHUGAI SEIYAKU KABUSHIKI KAISHA, priority 2022, dated 2024)

Columns and labels:
[1] = system: human lung cancer strain NCI-H441; type: cell-based
Procedure, shortened: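 Step one: dispense the test compound in serial DMSO dilutions. Step three: add the reagent and measure […].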

[2] = target: GDP-bound NRAS wild-type protein (Homo sapiens, UniProt P01111); test: Binding to NRAS by surface plasmon resonance (SPR), KD and KD ratio to KRAS; details: ratio of KD for GDP-bound NRAS wild-type protein to KD for KRAS
Procedure, shortened: (§1)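 Running buffer contained 10 µM GDP and 10 mM MgCl2 to keep RAS in the GDP state, with 4% DMSO at pH 7.4. Compounds were flowed at 100 µL/min in 75 s steps of rising concentration over captured biotin-Avi RAS at 30°C. Sensorgrams were fitted 1:1 for KD.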

[3] = target: HRAS wild-type protein (Homo sapiens, UniProt P01112); test: Binding to HRAS by surface plasmon resonance (SPR), KD and KD ratio to KRAS; details: ratio of KD for HRAS wild-type protein to KD for KRAS
Procedure, shortened: as §1

Sequence of HRAS wild-type protein (P01112 whole entry): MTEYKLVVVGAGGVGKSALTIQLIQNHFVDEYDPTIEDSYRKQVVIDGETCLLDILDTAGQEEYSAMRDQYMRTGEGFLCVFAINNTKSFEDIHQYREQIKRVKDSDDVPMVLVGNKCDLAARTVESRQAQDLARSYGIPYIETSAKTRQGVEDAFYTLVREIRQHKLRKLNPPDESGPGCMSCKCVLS
Sequence of GDP-bound NRAS wild-type protein (P01111 whole entry): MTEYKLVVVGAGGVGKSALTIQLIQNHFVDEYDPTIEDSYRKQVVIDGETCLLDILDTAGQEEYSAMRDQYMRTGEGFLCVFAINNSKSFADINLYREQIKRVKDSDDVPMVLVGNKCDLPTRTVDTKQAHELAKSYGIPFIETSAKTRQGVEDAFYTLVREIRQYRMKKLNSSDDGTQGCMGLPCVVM

Row | IC50 [1] | Compound | NRAS /KRAS [2] | HRAS /KRAS [3]
1 | 90.3 nM | CCO[C@@H]1C[C@H]2C(=O)NC3(CCC3)C(=O)N(C)[C@@H](CC(F)F)C(=O)N(C)[C@H](C(=O)N3CCOCC3)CC(=O)N(C)[C@@H](CC(C)C)C(=O)N[C@@H]([C@@H](C)CC)C(=O)N(C)CC(=O)N(C)[C@H]3CCCCN(C3=O)[C@@H](Cc3ccc(C(F)(F)F)cc3)C(=O)N(C)CC(=O)N[C@@H](CCc3cc(F)c(C(F)(F)F)c(F)c3)C(=O)N2C1 [PP0813] | C (A compound having a KD ratio of 0.1 or more and less than 3 is denoted as C) | B (a compound having 3 or more and less than 10 is denoted as B)
2 | 1990 nM | CCO[C@@H]1C[C@H]2C(=O)NC3(CCC3)C(=O)N(C)[C@@H](CC(F)F)C(=O)N(C)[C@H](C(=O)N3CCOCC3)CC(=O)N(C)[C@@H](CC(C)C)C(=O)N[C@@H]([C@@H](C)CC)C(=O)N(C)CC(=O)N(C)[C@H]3CCCCCN(C3=O)[C@@H](Cc3ccc(C(F)(F)F)cc3)C(=O)N(C)CC(=O)N[C@@H](CCc3cc(F)c(C(F)(F)F)c(F)c3)C(=O)N2C1 [PP0822] | B (a compound having 3 or more and less than 10 is denoted as B) | B (a compound having 3 or more and less than 10 is denoted as B)
3 | 23.6 nM | CCO[C@@H]1C[C@H]2C(=O)NC3(CCC3)C(=O)N(C)[C@@H](C3CCCC3)C(=O)N(C)[C@H](C(=O)N(C)C)CC(=O)N(C)[C@@H](CC)C(=O)N[C@@H]([C@@H](C)CC)C(=O)N(C)CC(=O)N(C)[C@H]3C/C=C\CCN(C3=O)[C@@H](Cc3ccc(C(F)(F)F)cc3)C(=O)N(C)CC(=O)N[C@@H](CCc3cc(F)c(C(F)(F)F)c(F)c3)C(=O)N2C1 [PP0824] | A (a compound having 10 or more and less than 20 is denoted as A) | A (a compound having 10 or more and less than 20 is denoted as A)
4 | 7.3 nM | CCO[C@@H]1C[C@H]2C(=O)NC3(CC(F)(F)C3)C(=O)N(C)[C@@H](C3CCCC3)C(=O)N(C)[C@H](C(=O)N3CCOCC3)CC(=O)N(C)[C@@H](CC(C)C)C(=O)N[C@@H]([C@@H](C)CC)C(=O)N(C)CC(=O)N(C)[C@H]3CC=C(C)CN(C3=O)[C@@H](Cc3ccc(C(F)(F)F)cc3)C(=O)N(C)CC(=O)N[C@@H](CCc3cc(F)c(C(F)(F)F)c(F)c3)C(=O)N2C1 [PP0828] | C (A compound having a KD ratio of 0.1 or more and less than 3 is denoted as C) | C (A compound having a KD ratio of 0.1 or more and less than 3 is denoted as C)
5 | 3.4 nM | CCO[C@@H]1C[C@H]2C(=O)NC3(CCC3)C(=O)N(C)[C@@H](C3CCCC3)C(=O)N(C)[C@H](C(=O)N(C)C)CC(=O)N(C)[C@@H](CC)C(=O)N[C@@H]([C@@H](C)CC)C(=O)N(C)CC(=O)N(C)[C@H]3C[C@H]4C[C@H]4CN(C3=O)[C@@H](Cc3ccc(C(F)(F)F)cc3)C(=O)N(C)CC(=O)N[C@@H](CCc3cc(F)c(C(F)(F)F)c(F)c3)C(=O)N2C1 [PP0830] | C (A compound having a KD ratio of 0.1 or more and less than 3 is denoted as C) | C (A compound having a KD ratio of 0.1 or more and less than 3 is denoted as C)

Continued, compound first:

Row | Compound | IC50 [1] | NRAS /KRAS [2] | HRAS /KRAS [3]
6 | CCOC1CC2C(=O)NC3(CCC3)C(=O)N(C)C(C(C)CC)C(=O)N(C)[C@H](C(=O)N3CCOCC3)CC(=O)N(C)[C@@H](CC(C)C)C(=O)N[C@@H]([C@@H](C)CC)C(=O)N(C)CC(=O)N(C)[C@H]3CCCCN(C3=O)[C@@H](Cc3ccc(C(F)(F)F)cc3)C(=O)N(C)CC(=O)N[C@@H](CCc3cc(F)c(C(F)(F)F)c(F)c3)C(=O)N2C1 (stereo partly drawn) [PP0812] | 17.9 nM | B (a compound having 3 or more and less than 10 is denoted as B) | B (a compound having 3 or more and less than 10 is denoted as B)
7 | CCO[C@@H]1C[C@H]2C(=O)NC3(CCC3)C(=O)N(C)[C@@H](C(C)(C)C)C(=O)N(C)[C@H](C(=O)N3CCOCC3)CC(=O)N(C)[C@@H](CC(C)C)C(=O)N[C@@H]([C@@H](C)CC)C(=O)N(C)CC(=O)N(C)[C@H]3CCCCN(C3=O)[C@@H](Cc3ccc(C(F)(F)F)cc3)C(=O)N(C)CC(=O)N[C@@H](CCc3cc(F)c(C(F)(F)F)c(F)c3)C(=O)N2C1 [PP0814] | 19.4 nM | B (a compound having 3 or more and less than 10 is denoted as B) | B (a compound having 3 or more and less than 10 is denoted as B)
8 | CC[C@H](C)[C@@H]1NC(=O)[C@H](CC(C)C)N(C)C(=O)C[C@@H](C(=O)N2CCOCC2)N(C)C(=O)[C@H](C2CCCC2)N(C)C(=O)C2(CCC2)NC(=O)[C@@H]2C[C@@H](C(F)(F)F)CN2C(=O)[C@H](CCc2cc(F)c(C(F)(F)F)c(F)c2)NC(=O)CN(C)C(=O)[C@H](Cc2ccc(C(F)(F)F)cc2)N2CCCCC[C@@H](C2=O)N(C)C(=O)CN(C)C1=O [PP0818] | 43.7 nM | B (a compound having 3 or more and less than 10 is denoted as B) | B (a compound having 3 or more and less than 10 is denoted as B)
9 | CCO[C@@H]1C[C@H]2C(=O)NC3(CCC3)C(=O)N(C)[C@@H](C(C)(C)C)C(=O)N(C)[C@H](C(=O)N3CCOCC3)CC(=O)N(C)[C@@H](CC(C)C)C(=O)N[C@@H]([C@@H](C)CC)C(=O)N(C)CC(=O)N(C)[C@H]3CCCCCN(C3=O)[C@@H](Cc3ccc(C(F)(F)F)cc3)C(=O)N(C)CC(=O)N[C@@H](CCc3cc(F)c(C(F)(F)F)c(F)c3)C(=O)N2C1 [PP0823] | 130 nM | A (a compound having 10 or more and less than 20 is denoted as A) | B (a compound having 3 or more and less than 10 is denoted as B)
10 | CCO[C@@H]1C[C@H]2C(=O)NC3(CCC3)C(=O)N(C)[C@@H](C3CCCC3)C(=O)N(C)[C@H](C(=O)N3CCOCC3)CC(=O)N(C)[C@@H](CC(C)C)C(=O)N[C@@H]([C@@H](C)CC)C(=O)N(C)CC(=O)N(C)[C@H]3C/C=C\CCN(C3=O)[C@@H](Cc3ccc(C(F)(F)F)cc3)C(=O)N(C)CC(=O)N[C@@H](CCc3ccc(C(F)(F)F)c(Cl)c3)C(=O)N2C1 [PP0825] | 26.5 nM | A (a compound having 10 or more and less than 20 is denoted as A) | A (a compound having 10 or more and less than 20 is denoted as A)
11 | CCO[C@@H]1C[C@H]2C(=O)NC3(CCC3)C(=O)N(C)[C@@H](C3CCCC3)C(=O)N(C)[C@H](C(=O)N(C)C)CC(=O)N(C)[C@@H](CC)C(=O)N[C@@H]([C@@H](C)CC)C(=O)N(C)CC(=O)N(C)[C@H]3CC=C(C)CN(C3=O)[C@@H](Cc3ccc(C(F)(F)F)cc3)C(=O)N(C)CC(=O)N[C@@H](CCc3cc(F)c(C(F)(F)F)c(F)c3)C(=O)N2C1 [PP0827] | 15.7 nM | C (A compound having a KD ratio of 0.1 or more and less than 3 is denoted as C) | C (A compound having a KD ratio of 0.1 or more and less than 3 is denoted as C)
